Assay results from ChEMBL document CHEMBL1151767, “Lipidyl pseudopteranes A-F: isolation, biomimetic synthesis, and PTP1B inhibitory activity of a new class of pseudopteranoids from the Gorgonian Pseudopterogorgia acerosa” (J Nat Prod, 2008).
Calls of active or inactive are those of the source. The rule behind the calls is not given here.

Tests used:
[1] = target: Receptor-type tyrosine-protein phosphatase F (Homo sapiens) (UniProt P10586); test: Inhibition of GST-tagged PTP LAR at 100 ug/mL
[2] = target: Tyrosine-protein phosphatase non-receptor type 6 (Homo sapiens) (UniProt P29350); test: Inhibition of GST-tagged PTP SHP1 at 100 ug/mL
Tyrosine-protein phosphatase non-receptor type 6 (Homo sapiens), sequence (P29350 whole entry): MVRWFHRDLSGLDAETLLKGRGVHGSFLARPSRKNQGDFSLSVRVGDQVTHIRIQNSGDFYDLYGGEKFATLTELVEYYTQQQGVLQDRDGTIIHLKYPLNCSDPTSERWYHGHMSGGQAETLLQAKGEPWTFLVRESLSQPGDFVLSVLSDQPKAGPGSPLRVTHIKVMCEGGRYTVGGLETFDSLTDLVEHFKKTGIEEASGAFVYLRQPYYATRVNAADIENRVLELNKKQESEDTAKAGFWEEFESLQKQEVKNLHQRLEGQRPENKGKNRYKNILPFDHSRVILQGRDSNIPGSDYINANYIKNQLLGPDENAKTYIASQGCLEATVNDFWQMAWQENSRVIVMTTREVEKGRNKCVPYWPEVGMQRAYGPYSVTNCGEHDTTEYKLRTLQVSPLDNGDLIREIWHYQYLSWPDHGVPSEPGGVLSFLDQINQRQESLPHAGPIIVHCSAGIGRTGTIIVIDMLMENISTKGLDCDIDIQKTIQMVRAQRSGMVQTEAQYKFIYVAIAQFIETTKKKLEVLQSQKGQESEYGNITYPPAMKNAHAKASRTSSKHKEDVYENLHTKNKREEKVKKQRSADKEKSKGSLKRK

[3] = target: T1, Tyrosine-protein phosphatase non-receptor type 1 (Homo sapiens) (UniProt P18031); test: Inhibition of GST-tagged PTP1B at 100 ug/mL
T1 sequence (whole entry): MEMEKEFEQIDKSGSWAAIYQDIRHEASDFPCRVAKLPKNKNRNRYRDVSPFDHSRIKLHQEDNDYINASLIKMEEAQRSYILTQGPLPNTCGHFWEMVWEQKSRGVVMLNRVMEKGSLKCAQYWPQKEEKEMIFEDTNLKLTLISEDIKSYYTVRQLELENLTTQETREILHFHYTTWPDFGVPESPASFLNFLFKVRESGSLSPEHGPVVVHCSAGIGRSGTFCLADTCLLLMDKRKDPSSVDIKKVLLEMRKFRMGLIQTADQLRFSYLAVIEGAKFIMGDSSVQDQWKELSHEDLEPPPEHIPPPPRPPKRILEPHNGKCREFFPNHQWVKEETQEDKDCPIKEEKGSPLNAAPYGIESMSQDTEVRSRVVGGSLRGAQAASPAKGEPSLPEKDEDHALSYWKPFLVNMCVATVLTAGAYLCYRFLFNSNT

[4] = target: T2, Dual specificity protein phosphatase 22 (Homo sapiens) (UniProt Q9NRW4); test: Inhibition of GST-tagged PTP MKPX at 100 ug/mL
T2 sequence (whole entry): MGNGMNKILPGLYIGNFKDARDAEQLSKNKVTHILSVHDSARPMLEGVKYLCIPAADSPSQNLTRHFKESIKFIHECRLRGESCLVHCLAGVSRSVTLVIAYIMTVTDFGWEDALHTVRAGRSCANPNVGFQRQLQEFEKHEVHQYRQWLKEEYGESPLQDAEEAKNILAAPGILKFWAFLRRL

[5] = target: T3, Tyrosine-protein phosphatase non-receptor type 1 (Homo sapiens, UniProt P18031); test: Inhibition of GST-tagged PTP1B
T3 sequence (P18031 whole entry): T1 sequence (whole entry)

Receptor-type tyrosine-protein phosphatase F (Homo sapiens), sequence (P10586 whole entry): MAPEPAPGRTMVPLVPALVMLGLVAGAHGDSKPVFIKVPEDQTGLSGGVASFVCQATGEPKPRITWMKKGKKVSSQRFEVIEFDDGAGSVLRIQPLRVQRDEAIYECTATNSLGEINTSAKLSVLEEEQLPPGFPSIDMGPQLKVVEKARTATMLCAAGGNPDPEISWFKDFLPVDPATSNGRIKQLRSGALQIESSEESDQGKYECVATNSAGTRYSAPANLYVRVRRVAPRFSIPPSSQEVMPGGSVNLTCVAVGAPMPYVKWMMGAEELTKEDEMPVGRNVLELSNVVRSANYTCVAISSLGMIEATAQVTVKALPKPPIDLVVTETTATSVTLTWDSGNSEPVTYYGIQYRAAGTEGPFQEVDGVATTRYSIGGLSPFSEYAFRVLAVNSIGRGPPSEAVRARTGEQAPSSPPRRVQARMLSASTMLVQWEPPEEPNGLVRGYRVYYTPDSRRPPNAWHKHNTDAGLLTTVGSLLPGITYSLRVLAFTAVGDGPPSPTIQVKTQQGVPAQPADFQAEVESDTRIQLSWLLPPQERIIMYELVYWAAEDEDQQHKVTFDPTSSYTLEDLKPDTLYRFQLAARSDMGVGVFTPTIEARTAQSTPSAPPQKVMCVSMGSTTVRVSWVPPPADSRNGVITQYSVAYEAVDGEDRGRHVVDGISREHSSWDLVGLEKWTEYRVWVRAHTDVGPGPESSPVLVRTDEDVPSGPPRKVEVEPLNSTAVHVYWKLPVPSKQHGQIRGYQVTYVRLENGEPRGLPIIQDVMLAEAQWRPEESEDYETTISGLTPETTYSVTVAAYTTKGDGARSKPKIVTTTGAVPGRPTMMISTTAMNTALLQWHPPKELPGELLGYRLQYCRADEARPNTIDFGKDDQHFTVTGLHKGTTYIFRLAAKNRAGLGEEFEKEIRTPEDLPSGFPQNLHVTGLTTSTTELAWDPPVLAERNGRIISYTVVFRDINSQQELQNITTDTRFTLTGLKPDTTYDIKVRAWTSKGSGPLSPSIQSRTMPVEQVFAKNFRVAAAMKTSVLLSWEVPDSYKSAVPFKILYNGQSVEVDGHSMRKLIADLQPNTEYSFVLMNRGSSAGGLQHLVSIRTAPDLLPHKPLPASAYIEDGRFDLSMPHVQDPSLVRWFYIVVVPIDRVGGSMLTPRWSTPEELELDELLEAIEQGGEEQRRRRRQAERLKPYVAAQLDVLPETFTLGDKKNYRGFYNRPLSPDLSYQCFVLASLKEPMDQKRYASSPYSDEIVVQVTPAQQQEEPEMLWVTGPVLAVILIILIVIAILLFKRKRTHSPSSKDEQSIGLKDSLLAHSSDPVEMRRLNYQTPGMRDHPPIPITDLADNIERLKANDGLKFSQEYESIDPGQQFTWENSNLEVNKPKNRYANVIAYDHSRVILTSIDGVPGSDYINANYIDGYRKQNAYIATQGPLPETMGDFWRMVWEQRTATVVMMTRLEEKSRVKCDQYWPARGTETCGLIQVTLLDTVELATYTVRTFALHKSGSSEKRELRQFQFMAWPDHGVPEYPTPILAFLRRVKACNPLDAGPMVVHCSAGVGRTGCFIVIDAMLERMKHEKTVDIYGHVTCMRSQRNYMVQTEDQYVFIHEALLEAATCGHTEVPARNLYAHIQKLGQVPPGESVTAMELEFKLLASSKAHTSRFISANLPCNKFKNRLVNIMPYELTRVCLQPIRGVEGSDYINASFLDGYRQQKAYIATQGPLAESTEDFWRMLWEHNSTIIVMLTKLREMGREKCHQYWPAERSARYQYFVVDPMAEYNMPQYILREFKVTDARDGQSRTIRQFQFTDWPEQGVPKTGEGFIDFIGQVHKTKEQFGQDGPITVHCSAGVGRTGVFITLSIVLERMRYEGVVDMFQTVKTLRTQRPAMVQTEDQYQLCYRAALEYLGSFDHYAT

Row | SMILES | Activity [1] | Activity [2] | Activity [3] | Activity [4] | IC50 [5]
1 | C=C(C)[C@H]1CC2=C(C(=O)OC)C=C(O2)[C@H](C(=C)C)[C@H]2C=C(C(=O)O2)C(OC(=O)CCCCCCCCCCCCCCC)C1 (some centres undefined) | inactive | inactive | Active | inactive | –
2 | C=C(C)[C@H]1C2=CC(C(=O)OC)=C(C[C@H](C(=C)C)[C@@H](O)C(OC(=O)CCCCCCCCCCCCCCC)C3=C[C@H]1OC3=O)O2 (single isomer, unassigned) [LIPIDYL PSEUDOPTERANE A] | inactive | inactive | Active | inactive | 113 µM
